The results in this text go back to ChEMBL document CHEMBL1150116, “Huperzine R, a novel 15-carbon Lycopodium alkaloid from Huperzia serrata” (J Nat Prod, 2002).

For this assay, the target named is Acetylcholinesterase (Homo sapiens) (UniProt P22303). The experiment in a line: Inhibition of AChE at 95 umol.

Structures are written as SMILES.

Acetylcholinesterase (Homo sapiens), sequence (P22303 whole entry): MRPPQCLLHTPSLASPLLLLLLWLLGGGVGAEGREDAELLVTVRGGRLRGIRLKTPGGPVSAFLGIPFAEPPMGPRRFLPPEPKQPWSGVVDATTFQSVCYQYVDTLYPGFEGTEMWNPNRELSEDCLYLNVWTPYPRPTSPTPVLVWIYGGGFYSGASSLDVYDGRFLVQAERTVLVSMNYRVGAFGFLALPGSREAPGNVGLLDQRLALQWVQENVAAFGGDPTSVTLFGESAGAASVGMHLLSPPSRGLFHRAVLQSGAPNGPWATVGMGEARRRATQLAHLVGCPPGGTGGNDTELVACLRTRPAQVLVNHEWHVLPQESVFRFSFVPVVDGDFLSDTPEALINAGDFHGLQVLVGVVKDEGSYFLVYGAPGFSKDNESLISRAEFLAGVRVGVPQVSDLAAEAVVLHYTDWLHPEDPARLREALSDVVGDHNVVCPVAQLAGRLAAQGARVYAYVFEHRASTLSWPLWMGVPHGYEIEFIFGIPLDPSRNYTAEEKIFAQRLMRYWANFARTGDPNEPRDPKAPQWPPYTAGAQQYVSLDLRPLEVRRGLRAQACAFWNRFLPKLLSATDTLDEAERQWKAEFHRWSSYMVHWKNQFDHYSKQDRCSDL

`C[C@H]1CC(=O)N2CCCC3=C(C1)C(=O)O[C@H]3CCC2`: the inhibition was 27%.
